These results are taken from BindingDB's records for patent US10759792 (The Johns Hopkins University, 2020).

The target of the assay is Calcium/calmodulin-dependent protein kinase type II subunit delta (Homo sapiens, UniProt Q13557). Nature of the assay: Inhibition Assay. The procedure:
Compounds were added in 5 uL volume to wells in UV transparent 96-well plates ( area well size). The final compound concentrations tested ranged from 0.5 nM to 10 uM). Assays were performed in duplicate. CaMKIIδ is added to at a final concentration of 16 nM to a mixture containing 100 mM Tris (pH 7.5), 150 mM KCl, 0.27 mM EGTA, 1.3 mM PEP, 0.2 mg/ml AC3, 6.9% (v/v) PK/LDH mixture (Sigma P0294), 0.38 mM NADH and kept on ice. 72 uL of the enzyme mixture was added to the wells containing compounds and the plate was shaken briefly and kept on ice. The assay was initiated by adding 23 uL of a mixture containing 100 mM Tris (pH 7.5), 150 mM KCl, 1.7 mM CaCl2, 48 mM MgCl2, 0.35 mM ATP and 6.7 ug/mL calmodulin. The rate of ADP released was measured as the rate of absorbance decrease at […] at 25° C.

pIC50: −log10 of the molar value.

Calcium/calmodulin-dependent protein kinase type II subunit delta, sequence (Q13557 whole entry): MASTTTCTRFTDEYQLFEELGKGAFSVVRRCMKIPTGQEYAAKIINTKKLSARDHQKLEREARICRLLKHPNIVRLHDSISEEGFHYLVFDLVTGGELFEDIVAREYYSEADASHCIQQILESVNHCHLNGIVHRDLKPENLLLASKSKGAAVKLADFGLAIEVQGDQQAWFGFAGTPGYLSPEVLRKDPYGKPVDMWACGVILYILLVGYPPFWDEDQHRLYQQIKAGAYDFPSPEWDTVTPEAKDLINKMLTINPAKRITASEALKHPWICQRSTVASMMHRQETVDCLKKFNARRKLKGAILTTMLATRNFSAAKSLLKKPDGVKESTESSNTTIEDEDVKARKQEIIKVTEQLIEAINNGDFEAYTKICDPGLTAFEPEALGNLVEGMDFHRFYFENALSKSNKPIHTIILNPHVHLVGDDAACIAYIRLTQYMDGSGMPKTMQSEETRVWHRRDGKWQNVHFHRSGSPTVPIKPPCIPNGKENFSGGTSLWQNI

One may read the pIC50 as −log10 of the IC50, conventionally taken in molar units. As for `NCCCNc1cccc(-c2ccnc3[nH]c4ccccc4c23)c1` [US10759792, Compound I-8], the negative-log IC50 (pIC50) was over 7.30.

On to `Cc1ccc2c(c1)[nH]c1nccc(-c3cccc(NCCN)c3)c12` [US10759792, Compound I-11], for which the pIC50 is over 7.30.
